Assay results from US9655877B2, “Therapeutic methods for treating inflammation and immune system disorders” (priority 2009, dated 2017).

Tests used:
Format in all cases: cell-based, murine
[1] = system: TNF-α mRNA; assay: TNF-α mRNA stability assay (actinomycin D) in BV-2 cells; conditions: compound 1 hour, LPS 2 hours, then 1 μg/ml actinomycin
Method: 10^5 BV-2 cells were first stimulated by 100 ng/ml LPS. After 2 h of LPS treatment, transcription inhibitor actinomycin D (Act D) at a concentration of 1 ug/ml was added to stop the mRNA synthesis. Total RNA was harvested at indicated time points after actinomycin D treatment (post-Act D). The level of TNF-α mRNA was measured by real-time quantitative RT-PCR. In addition, the effect of senkyunolide A on TNF-α mRNA stability is evaluated. Specifically, 10^5 cells/ml BV-2 cells are seeded in 24-well plates (0.5 ml in each well). Cells are treated with Sen A at various concentrations for 1 hour prior to the addition of LPS for another 2 hours, and further incubated with 1 μg/ml actinomycin for various time periods. Total RNA of the treated samples is isolated and subjected to real-time RT-PCR.

[2] = system: TNF-α mRNA and iNOS expression in BV-2 cells; assay: TNF-α mRNA and iNOS expression in LPS-treated BV-2 cells, RT-PCR; conditions: compound 1 hour before LPS for 6 hours
Method: Semi-quantitative PCR assays of targeted genes were performed in a 25 μl reaction mixture containing 1.5 mM MgCl2, 0.2 mM of each deoxynucleoside triphosphate, 0.25 μM of each primer, 2 units of Taq polymerase (GE Healthcare), and 1 μl of cDNA. PCR primer sets for TNF-α and glyceraldehyde-3-phosphate dehydrogenase (GAPDH) were as follows. TNF-α (upstream: 5′-GGCTCCAGGCGGTGCT TGTCC-3′ (SEQ ID NO:1); downstream: 5′-[…]-3′ (SEQ ID NO:2)), and GAPDH (upstream: 5′-[…]-3′ (SEQ ID NO:3); downstream: 5′-[…]-3′ (SEQ ID NO:4). The thermal cycling condition for PCR was 94° C. for 30 s, 60° C. for 30 s, and 72° C. for 1 min. The cycling reactions were repeated for 24 more cycles.
The levels of TNF-α mRNA and iNOS mRNA were determined by real-time RT-PCR (Roche 480II). 18S ribosomal RNA (18S) was used as an internal control. All of the real-time RT-PCR probes were obtained from the Universal Probe Library (Roche). All of the samples were performed in duplicate. […] The relative mRNA expression of the targeted genes was calculated by 2^−ΔΔCT and expressed as fold induction.
To study the role of senkyunolide A in suppressing TNF-α production, 10^5 cells/ml BV-2 cells are seeded in 24-well plates (0.5 ml in each well). […] Total RNA of the treated samples is isolated and subjected to semi-quantitative RT-PCR assays (FIG. 9A) and quantitative RT-PCR assays (FIGS. 9B and C) using specific […] TNF-α primers.

[3] = system: Neuro-2a cells; assay: Conditioned culture medium transfer model (LPS-treated BV-2 supernatant on Neuro-2a), MTT assay; conditions: supernatant of BV-2 cells treated with 100 ng/ml LPS and 50 μg/ml compound 18 h, on Neuro-2a 48 h; LPS only more than 40%
Method: BV-2 cells (3×10^5 cells/ml) were first treated with 100 ng/ml LPS for 18 h, in the presence of either 0.05% DMSO or 50 μg/ml senkyunolide A or Z-ligustilide. After centrifugation, the supernatants from BV-2 cells were transferred to Neuro-2a cells ([…]) for 48 h. Viability of Neuro-2a cells was measured using MTT assays. Results are shown as mean SD from three independent experiments. *p<0.05 compared with DMSO+LPS.
BV-2 cells were seeded at 3×10^5 cells/ml in 12-well culture plates (1 ml in each well). They were co-treated with or without 100 ng/ml LPS, in the presence of 0.05% DMSO, 50 μg/ml senkyunolide A, or 50 μg/ml Z-ligustilide, for 18 h. The supernatants were then collected and centrifuged at 13,200 rpm for 3 min. The resulting supernatants were then transferred to Neuro-2a cells (1×10^5 cells/ml in 24-well culture plates), which were incubated for another 48 h. Cell viability of Neuro-2a cells was measured by MTT assay.
Briefly, to investigate the physiological significance of Sen A and Z-Lig, a conditioned culture medium transfer model, commonly used for studying neuronal cell death induced by microglial activation, was adopted. After BV-2 cells were challenged with LPS, the supernatants were collected and centrifuged. The conditioned culture media were then transferred to Neuro-2a cell cultures.

[4] = system: MAP kinases (p38, JNK, ERK 1/2); assay: Phosphorylation of MAPKs in LPS-stimulated BV-2 cells, Western blot; conditions: 50 μg/ml pretreatment 1 h, 100 ng/ml LPS 30 min
Method: BV-2 cells (2×10^5 cells/ml) were pretreated with either 0.05% DMSO or 50 μg/ml senkyunolide A for 1 h, followed by treatment with 100 ng/ml LPS for another 30 min. (A) Cytoplasmic proteins were extracted and analyzed by Western Blot using antibodies specific for phospho-p38, phospho-JNK, phospho-ERK 1/2 and actin. (B) Nuclear proteins were extracted and analyzed by Western Blot against NF-kB p65 and lamin B antibodies. 10^5 cells/ml BV-2 cells were first pretreated with senkyunolide A for 1 h. After induction by 100 ng/ml LPS for 30 min, the culture medium was discarded. Cytoplasmic proteins and nuclear proteins were extracted separately by buffer A and buffer C as described in our previous report^28. The cell lysates were separated by 10% SDS-polyacrylamide gel electrophoresis and transferred to a nitrocellulose membrane (Schleicher & Schuell, Germany). The cell lysates were incubated with specific antibodies (phospho-MAP kinases, Actin, NF-kB p65 and Lamin B) overnight. After three washes, the membranes were incubated with the corresponding secondary antibodies. The bands were detected using the Enhanced Chemiluminescence System (GE Healthcare, Piscataway, N.J., USA) according to the manufacturer's instructions. […] Briefly, the effect of Sen A on mitogen-activated protein kinases (MAPKs) in the cell signaling cascade was investigated. […]

In the case of `CCCC[C@H]1OC(=O)C2=C1CCC=C2` [senkyunolide A], the “effect on TNF-α mRNA stability” value [1] is reported as “destabilizes TNF-α mRNA”, the “reduction of TNF-α mRNA half life” value [1] is reported as 43% and the “effect on TNF-α mRNA expression” value [2] is reported as “inhibits TNF-α mRNA”. For the same molecule, the “effect on iNOS expression” value [2] was “inhibits TNF-α mRNA and iNOS expression”, the “cell death of Neuro-2a cells” value [3] was “less than 15%” and the “effect on levels of phosphorylation of MAPKs (p38, JNK, ERK 1/2)” value [4] was “did not exert any effect”.
